Reference: EP0111455A2, “Unsaturated lactones” (CIBA-GEIGY AG, priority 1982, dated 1984)

Key:
narkotisierten Katze = assay: arterial blood pressure in the anaesthetised cat, intravenous; assay type: in vivo; conditions: qualitative, i.v., doses from about 0,001 mg/kg
Procedure: An der narkotisierten Katze führen die Verbindungen der Formel I und Salze von solchen Verbindungen mit salzbildenden Eigenschaften bei intravenöser Verabreichung in Dosen ab etwa 0,001 mg/kg zu einer Steigerung des arteriellen Blutdrucks.

[1] = system: isolierten, spontan schlagenden, rechten Vorhöfen des Meerschweinchens; assay: positive chronotropic effect on isolated, spontaneously beating right atria; assay type: cell-based, Meerschweinchen; conditions: qualitative; exclusively a decrease of contraction frequency
Excerpt: (§1) Die Steigerung der myocardialen Kontraktilität, d.h. die positiv inotrope Wirkung, kann z.B. anhand von Versuchsanordnungen nachgewiesen werden, die sich auf die von J.V. Levy, Isolated Atrial Preparations in Methods in Pharmacology, Bd. 1, S. 77 bis 104 (Ed. A. Schwartz; Appleton-Century-Crofts, New York; 1971),beschriebene Methodik, stützen. So steigern die Verbindungen der Formel I und Salze von solchen Verbindungen mit salzbildenden Eigenschaften in Konzentrationen ab etwa 0,1 umol/L an isolierten, elektrisch gereizten, linken Vorhöfen des Meerschweinchens (in vitro-Versuchsanordnung) die maximale Kontraktionskraft (peak developed tension). Das Ausmass (efficacy) dieser positiv inotropen Wirkung ist dabei unterschiedlich, kann jedoch bis zu 90 % der mit Isoproterenol maximal erreichbaren Wirkung betragen. Ferner steigern sie in Konzentrationen ab etwa 0,3 µ mol/L an isolierten, spontan schlagenden, rechten Vorhöfen des Meerschweinchens die Kontraktionsfrequenz. Das Ausmass (efficacy) dieser positiv chronotropen Wirkung ist dabei unterschiedlich, kann jedoch bis zu 60% der mit Isoproterenol maximal erreichbaren Wirkung betragen.

[2] = system: isolierten, elektrisch gereizten, linken Vorhöfen des Meerschweinchens; assay: positive inotropic effect on isolated, electrically stimulated left atria (method after J.V. Levy); assay type: cell-based, Meerschweinchen; conditions: for IC25 / IC50: negative inotropic effect, same set-up; for IC25: read-out: Konzentration für Reduktion der Kontraktionskraft um 25 %; for IC50: read-out: Konzentration für Reduktion der Kontraktionskraft um 50 %; for Kontraktionskraft (Art der Wirkung): qualitative, exclusively a decrease of contraction force; for Emax: Cavia porcellus, extent of positive inotropic effect in % of the maximal increase of contraction force by Isoproterenol, read-out: Ausmass der Wirkung (% von ISOmax); for EC50: concentration for half of the maximal positive inotropic effect, left atria, guinea pig, read-out: Wirksamkeit EC50
Excerpt: as §1
In der folgenden Tabelle werden die Konzentrationen (in µmol/L) für Verbindungen der Formel I angegeben, die notwendig sind, um die Hälfte der maximalen positiv inotropen Wirkung zu erzielen (EC50). Das Ausmass der Wirkung wird in % der maximalen, mittels Isoproterenol in dieser Versuchsanordnung bewirkten Steigerung der Kontraktionskraft (ISOmax.) angegeben; diejenige von Isoproterenol beträgt +2.1 +0.1 g (x ± SK; N=30).
Im Gegensatz dazu weist z.B. der obgenannte 2-Cyan-6-methyl-4-(3-nitrophenyl)-1,4-dihydro-pyridin-3,5-dicarbonsäure-5-isopropylester-3-methylester in der gleichen Versuchsanordnung eine Reduktion der Kontraktionskraft um 25 % bei einer Konzentration von 1 µmol/L und um 50 % bei einer solchen von 8 µmol/L auf, während Nifedipin bei einer Konzentration von 0.1 µmol/L eine 25 %ige und von 0.4 µmo 1/1 eine 50 Zige Reduktion der myocardialen Kontraktionskraft bewirkt.

männliche Ratten = assay: central nervous system stimulation (behaviour) in male rats, i.p.; assay type: in vivo; conditions: 50 mg/kg i.p. as solution in Polyäthylenglycol 400; during 1 hour, especially 30 minutes after administration
Procedure: Die Verbindungen der Formel I sowie Salze von solchen Verbindungen mit salzbildenden Eigenschaften wirken ferner aktivierend, insbesondere stimulierend, auf das Zentralnervensystem. So bewirkt z.B. die i.p.-Verabreichung von 50 mg/kg 4-(2-Difluormethoxyphenyl)-2-methyl-5-oxo-1,4,5,7-tetrahydro-fuo[3,4-b]pyridin-3-carbonsäureäthylester als Lösung in Polyäthylenglycol 400 an männliche Ratten während 1 Stunde, insbesondere während 30 Minuten nach Verabreichung Schnuppern, Kau- und Putzaktivität, sporadische. Schüttelbewegungen von Kopf und Körper sowie Vorderpfoten-Klonus. Aufgrund dieser Eigenschaften erscheinen die Verbindungen der Formel I sowie Salze von solchen Verbindungen mit salzbildenden Eigenschaften für die Behandlung retardierter Depressionen verschiedenen Schweregrades, von psychischen, von fehlendem Antrieb und Initiative begleiteten Störungen sowie von hypokinetischen, geriatrischen Patienten geeignet.

narkotisierten Hund = assay: haemodynamics and blood glucose in the anaesthetised dog, intravenous; assay type: in vivo; conditions: qualitative
Procedure: Im narkotisierten Hund (in vivo-Versuchsanordnung) bewirken die Verbindungen der Formel I und Salze von solchen Verbindungen mit salzbildenen Eigenschaften bei intravenöser Verabreichung in Dosen ab etwa 1 mg/kg ebenfalls eine Steigerung der myokardialen Kontraktilität (Zunahme der maximalen Druckanstiegsgeschwindigkeit dP/dt in der max Aorta) um etwa 40 bis etwa 60 %, sowie eine Steigerung des arteriellen Blutdrucks um etwa 10 bis etwa 30 %, ferner eine Abnahme der GlucoseKonzentration im Blut um etwa 10 bis etwa 30 %.

EC50 [2] [nM] | SMILES | Emax [2] [%] | also measured
– | COC(=O)C1=C(C#N)NC(C)=C(C(=O)OC(C)C)C1c1cccc([N+](=O)[O-])c1 (centres unmarked) [2-Cyan-6-methyl-4-(3-nitrophenyl)-1,4-dihydro-pyridin-3,5-dicarbonsäure-5-isopropylester-3-methylester, reference compound] | – | arterieller Blutdruck (Art der Wirkung) (narkotisierten Katze): Senkung des arteriellen Blutdrucks; Kontraktionsfrequenz (Art der Wirkung) [1]: negativ chronotrope Wirkung; IC25 [2]: 1000 nM; IC50 [2]: 8000 nM; Kontraktionskraft (Art der Wirkung) [2]: negativ inotrope Wirkung
380 | CCOC(=O)C1=C(C)NC2=C(C(=O)OC2)C1c1ccccc1OCCSC (centres unmarked) [2-Methyl-4-[2-(2-methylthioäthoxy)-phenyl]-5-oxo-_ 1,4,5,7-tetrahydro-fnro[3,4-b]pyridin-3-carbonsäure-äthylester] | 75 | –
1000 | CCOC(=O)C1=C(C)NC2=C(C(=O)OC2)C1c1ccccc1OC(F)(F)C(F)Cl (centres unmarked) [4-[2-(2-Chlor-1,1,2-trifluor-äthoxy)-phenyl]-2-methyl-5-oxo-1,4,5,7-tetrahydro-furo-[3,4-b]pyridin-3-carbonsäureäthylester] | 75 | –
63000 | CC1=C(C#N)C(c2ccccc2OC(F)F)C2=C(COC2=O)N1 (centres unmarked) [-CN; 2-Difluormethoxy-phenyl, 4-(2-Difluormethoxy-phenyl)-2-methyl-5-oxo-1,4,5,7-tetrahydro-furo[3,4-b]pyridin-3-carbonitril] | 68 | –
5300 | COCCOC(=O)C1=C(C)NC2=C(C(=O)OC2)C1c1ccccc1OC(F)F (centres unmarked) [-COOC2H4OCH3; 2-Difluormethoxy-phenyl, 4-(2-Difluormethoxyphenyl)-2-methyl-5-oxo-1,4,5,7-tetrahydro-furo[3,4-b]pyridin-3-carbonsäure-(2-methoxyäthyl)-ester] | 90 | –
– | CCOC(=O)C1=C(C)NC2=C(C(=O)OC2)C1c1cccc(OC(F)F)c1OC(F)F (centres unmarked) [-COOC2H5; 2,3-Di-difluor-methoxyphenyl, 4-[2,3 Di-(difluormethoxy)-phenyl]-2-methyl-5-oxo-1,4,5,7-tetrahydro-furo[3,4-b]pyridin-3-carbonsäure-äthylester] | 14 | –
3800 | CCOC(=O)C1=C(C)NC2=C(C(=O)OC2)C1c1ccccc1OCCOC (centres unmarked) [-COOC2H5; 2-(2-Methoxyäthoxy)-phenyl, 2 Methyl-4-[2-(2-methoxyäthoxy)-phenyl]-5-oxo-1,4,5,7-tetrahydro-furo[3,4-b]pyridin-3-carbonsäure-äthylester] | 80 | –
700 | CCOC(=O)C1=C(C)NC2=C(C(=O)OC2)C1c1ccccc1OC(F)F (centres unmarked) [-COOC2H5; 2-Difluormethoxy-phenyl, 4-(2-Difluormethoxy-phenyl)-2-methyl-5-oxo-1,4-5,7-tetrahydro-furo[3,4-b]pyridin-3-carbonsäureäthylester] | 65 | Wirkung auf das Zentralnervensystem (Verhalten) (männliche Ratten): Schnuppern, Kau- und Putzaktivität, sporadische. Schüttelbewegungen von Kopf und Körper sowie Vorderpfoten-Klonus
1000 | CCOC(=O)C1=C(C)NC2=C(C(=O)OC2)C1c1ccccc1SC(F)F (centres unmarked) [-COOC2H5; 2-Difluormethyl-mercaptophenyl, 4-(2-Difluormethylmercaptophenyl)-2-methyl-5-oxo-1,4,5,7-tetrahydro-furo[3,4-b]pyridin-3-carbonsäure-äthylester] | 80 | –
4800 | CCOC(=O)C1=C(C)NC2=C(C(=O)OC2)C1c1cccc(OC(F)F)c1 (centres unmarked) [-COOC2H5; 3-Difluormethoxy-phenyl, 4-(3-Difluormethoxyphenyl)-2-methyl-5-oxo-1,4,5,7-tetrahydro-furo [3,4-b]pyridin-3-carbonsäure-äthylester] | 65 | –
– | CCOC(=O)C1=C(C)NC2=C(C(=O)OC2)C1c1ccc(OC(F)F)cc1 (centres unmarked) [-COOC2H5; 4-Difluormethoxy-phenyl, 4-(4-Difluormethoxy-phenyl)-2-methyl-5-oxo-1,4,5,7-tetrahydro-furo[3,4-b]pyridin-3-carbonsäureäthylester] | 10 | –
3700 | COC(=O)C1=C(C)NC2=C(C(=O)OC2)C1c1ccccc1OC(F)F (centres unmarked) [-COOCH3; 2-Difluormethoxy-phenyl, 4-(2-Difluormethoxyphenyl)-2-methyl-5-oxo-l,4,5,7-tetrahydro-furo[3,4-b]pyridin-3-carbonsäure-methylester] | 70 | –
1200 | CC1=C(C(=O)OC(C)C)C(c2ccccc2OC(F)F)C2=C(COC2=O)N1 (centres unmarked) [-COOCH(CH3)2; 2-Difluormethoxy-phenyl, 4-(2-Difluormethoxyphenyl)-2-methyl-5-oxo-1,4,5,7-tetra-hydro-furo[3,4-b]pyridin-3-carbonsäure-isopropylester] | 70 | –
– | CC(C)NCC(O)c1ccc(O)c(O)c1 (centres unmarked) [Isoproterenol, reference compound] | – | maximale Steigerung der Kontraktionskraft (ISOmax.) ([2]; x ± SK, N=30): 2.1 ± 0.1 g
– | COC(=O)C1=C(C)NC(C)=C(C(=O)OC)C1c1ccccc1[N+](=O)[O-] [Nifedipin, 2,6-Dimethyl-4-(2-nitrophenyl)-1,4-dihydro-pyridin-3,5-dicarbonsäure-dimethylester, reference compound] | – | arterieller Blutdruck (Art der Wirkung) (narkotisierten Katze): Senkung des arteriellen Blutdrucks; Kontraktionsfrequenz (Art der Wirkung) [1]: negativ chronotrope Wirkung; IC25 [2]: 100 nM; IC50 [2]: 400 nM; Kontraktionskraft (Art der Wirkung) [2]: negativ inotrope Wirkung; Blutdruck (Art der Wirkung) (narkotisierten Hund): Senkung des Blutdrucks
